Measured values published in US12208092B2, “Compositions and methods for administering paltusotine to patients with hepatic impairment” (CRINETICS PHARMACEUTICALS, INC., priority 2023, dated 2025).

Test: Phase 1 hepatic impairment study, safety (TEAEs) after single oral 20 mg tablet
[1] = mild hepatic impairment (N = 8)
[2] = moderate hepatic impairment (N = 8)
[3] = normal hepatic function (N = 14)

Procedure: The secondary objective of the study was to assess the safety and tolerability of a single dose of paltusotine in subjects with varying degrees of hepatic impairment.
Safety and tolerability were assessed by the following endpoints: reported adverse events (AEs), clinical laboratory test results (hematology, coagulation, serum chemistry, and urinalysis), vital sign measurements, and 12-lead electrocardiogram results
All 36 subjects who were enrolled in the study received all planned single doses of paltusotine 20 mg (1×20 mg tablet) and were included in the safety and PK analysis populations.

## N#Cc1cccc(-c2ccc3ncc(-c4cc(F)cc(F)c4)c(N4CCC(N)CC4)c3c2)c1O [paltusotine, 3-[4-(4-amino-1-piperidyl)-3-(3,5-difluorophenyl)-6-quinolyl]-2-hydroxybenzonitrile]
All 36 subjects
  discontinuation due to a TEAE: No subjects discontinued
Hepatic impairment and normal subjects
  safety and tolerability: safe and generally well tolerated
[1]
  Any SAEs, number of occurrences: 1
  Any TEAE, number of occurrences: 3
  Related TEAE Abdominal discomfort, subjects n (%): 0
  Related TEAE Diarrhea, number of occurrences: 1
  Related TEAE Diarrhea, subjects n (%): 1 (12.5%)
  Related TEAE Epigastric discomfort, subjects n (%): 0
  Related TEAE Fatigue, subjects n (%): 0
  Related TEAE Haematuria, number of occurrences: 1
  Related TEAE Haematuria, subjects n (%): 1 (12.5%)
  Related TEAE Headache, subjects n (%): 0
  Related TEAE Neutropenia, subjects n (%): 0
  Related TEAE Pain, subjects n (%): 0
  Related TEAE Paraesthesia, subjects n (%): 0
  SAEs Not related to study drug (strongest relationship), subjects n (%): 1 (12.5%)
  SAEs Not related to study drug, number of occurrences: 1
  SAEs Related to study drug (strongest relationship), subjects: 0
  Subjects reporting any SAEs, subjects n (%): 1 (12.5%)
  Subjects reporting any TEAE, subjects n (%): 2 (25.0%)
  TEAE Abdominal discomfort, subjects n (%): 0
  TEAE COVID-19, subjects n (%): 0
  TEAE Death, number of occurrences: 1
  TEAE Diarrhea, number of occurrences: 1
  TEAE Diarrhea, subjects n (%): 1 (12.5%)
  TEAE Epigastric discomfort, subjects n (%): 0
  TEAE Fatigue, subjects n (%): 0
  TEAE Haematuria, number of occurrences: 1
  TEAE Haematuria, subjects n (%): 1 (12.5%)
  TEAE Headache, subjects n (%): 0
  TEAE Neutropenia, subjects n (%): 0
  TEAE Pain, subjects n (%): 0
  TEAE Paraesthesia, subjects n (%): 0
  TEAE SOC Blood and lymphatic system disorders, subjects n (%): 0
  TEAE SOC Gastrointestinal disorders, number of occurrences: 1
  TEAE SOC Gastrointestinal disorders, subjects n (%): 1 (12.5%)
  TEAE SOC General disorders and administration site conditions, number of occurrences: 1
  TEAE SOC General disorders and administration site conditions, subjects n (%): 1 (12.5%)
  TEAE SOC Infections and infestations, subjects n (%): 0
  TEAE SOC Nervous system disorders, subjects n (%): 0
  TEAE SOC Renal and urinary disorders, number of occurrences: 1
  TEAE SOC Renal and urinary disorders, subjects n (%): 1 (12.5%)
  TEAEs Not Related to study drug (strongest relationship), subjects n (%): 0
  TEAEs Related to study drug (strongest relationship), subjects n (%): 2 (25.0%)
  TEAEs Related to study drug, number of occurrences: 2
  TEAEs by maximum severity: Mild, number of occurrences: 2
  TEAEs by maximum severity: Mild, subjects n (%): 1 (12.5%)
  TEAEs by maximum severity: Moderate, subjects n (%): 0
  TEAEs by maximum severity: Severe, number of occurrences: 1
  TEAEs by maximum severity: Severe, subjects n (%): 1 (12.5%)
  Total number of SAEs reported: 1
  Total number of TEAEs reported: 3
[2]
  Any TEAE, number of occurrences: 4
  Related TEAE Abdominal discomfort, subjects n (%): 0
  Related TEAE Diarrhea, number of occurrences: 1
  Related TEAE Diarrhea, subjects n (%): 1 (12.5%)
  Related TEAE Epigastric discomfort, subjects n (%): 0
  Related TEAE Fatigue, number of occurrences: 1
  Related TEAE Fatigue, subjects n (%): 1 (12.5%)
  Related TEAE Haematuria, subjects n (%): 0
  Related TEAE Headache, number of occurrences: 1
  Related TEAE Headache, subjects n (%): 1 (12.5%)
  Related TEAE Neutropenia, subjects n (%): 0
  Related TEAE Pain, number of occurrences: 1
  Related TEAE Pain, subjects n (%): 1 (12.5%)
  Related TEAE Paraesthesia, subjects n (%): 0
  SAEs Not related to study drug (strongest relationship), subjects n (%): 0
  SAEs Related to study drug (strongest relationship), subjects: 0
  Subjects reporting any SAEs, subjects n (%): 0
  Subjects reporting any TEAE, subjects n (%): 2 (25.0%)
  TEAE Abdominal discomfort, subjects n (%): 0
  TEAE COVID-19, subjects n (%): 0
  TEAE Death, subjects n (%): 0
  TEAE Diarrhea, number of occurrences: 1
  TEAE Diarrhea, subjects n (%): 1 (12.5%)
  TEAE Epigastric discomfort, subjects n (%): 0
  TEAE Fatigue, number of occurrences: 1
  TEAE Fatigue, subjects n (%): 1 (12.5%)
  TEAE Haematuria, subjects n (%): 0
  TEAE Headache, number of occurrences: 1
  TEAE Headache, subjects n (%): 1 (12.5%)
  TEAE Neutropenia, subjects n (%): 0
  TEAE Pain, number of occurrences: 1
  TEAE Pain, subjects n (%): 1 (12.5%)
  TEAE Paraesthesia, subjects n (%): 0
  TEAE SOC Blood and lymphatic system disorders, subjects n (%): 0
  TEAE SOC Gastrointestinal disorders, number of occurrences: 1
  TEAE SOC Gastrointestinal disorders, subjects n (%): 1 (12.5%)
  TEAE SOC General disorders and administration site conditions, number of occurrences: 2
  TEAE SOC General disorders and administration site conditions, subjects n (%): 1 (12.5%)
  TEAE SOC Infections and infestations, subjects n (%): 0
  TEAE SOC Nervous system disorders, number of occurrences: 1
  TEAE SOC Nervous system disorders, subjects n (%): 1 (12.5%)
  TEAE SOC Renal and urinary disorders, subjects n (%): 0
  TEAEs Not Related to study drug (strongest relationship), subjects n (%): 0
  TEAEs Related to study drug (strongest relationship), subjects n (%): 2 (25.0%)
  TEAEs Related to study drug, number of occurrences: 4
  TEAEs by maximum severity: Mild, number of occurrences: 3
  TEAEs by maximum severity: Mild, subjects n (%): 1 (12.5%)
  TEAEs by maximum severity: Moderate, number of occurrences: 1
  TEAEs by maximum severity: Moderate, subjects n (%): 1 (12.5%)
  TEAEs by maximum severity: Severe, subjects n (%): 0
  Total number of SAEs reported: 0
  Total number of TEAEs reported: 4
[3]
  Any TEAE, number of occurrences: 6
  Related TEAE Abdominal discomfort, number of occurrences: 1
  Related TEAE Abdominal discomfort, subjects n (%): 1 (7.1%)
  Related TEAE Diarrhea, number of occurrences: 2
  Related TEAE Diarrhea, subjects n (%): 2 (14.3%)
  Related TEAE Epigastric discomfort, number of occurrences: 1
  Related TEAE Epigastric discomfort, subjects n (%): 1 (7.1%)
  Related TEAE Fatigue, subjects n (%): 0
  Related TEAE Haematuria, subjects n (%): 0
  Related TEAE Headache, subjects n (%): 0
  Related TEAE Neutropenia, subjects n (%): 0
  Related TEAE Pain, subjects n (%): 0
  Related TEAE Paraesthesia, number of occurrences: 1
  Related TEAE Paraesthesia, subjects n (%): 1 (7.1%)
  SAEs Not related to study drug (strongest relationship), subjects n (%): 0
  SAEs Related to study drug (strongest relationship), subjects: 0
  Subjects reporting any SAEs, subjects n (%): 0
  Subjects reporting any TEAE, subjects n (%): 4 (28.6%)
  TEAE Abdominal discomfort, number of occurrences: 1
  TEAE Abdominal discomfort, subjects n (%): 1 (7.1%)
  TEAE COVID-19, subjects n (%): 0
  TEAE Death, subjects n (%): 0
  TEAE Diarrhea, number of occurrences: 3
  TEAE Diarrhea, subjects n (%): 3 (21.4%)
  TEAE Epigastric discomfort, number of occurrences: 1
  TEAE Epigastric discomfort, subjects n (%): 1 (7.1%)
  TEAE Fatigue, subjects n (%): 0
  TEAE Haematuria, subjects n (%): 0
  TEAE Headache, subjects n (%): 0
  TEAE Neutropenia, subjects n (%): 0
  TEAE Pain, subjects n (%): 0
  TEAE Paraesthesia, number of occurrences: 1
  TEAE Paraesthesia, subjects n (%): 1 (7.1%)
  TEAE SOC Blood and lymphatic system disorders, subjects n (%): 0
